Results on 8 compounds are retold here after patent US5861413A, “2-oxo- and 2-thio-1,2-dihydroquinolinyl-oxazolidinones” (Bayer Aktiengesellschaft, priority 1996, dated 1999).

≈ marks a conversion by molar mass, not a printed value. Where two headings read alike, the source gives them in different places. Where only a bound is given, the exact number is not on record here.

What all share (assay type): cell-based
One assay deals with Staph. 133. Nature of the assay: MIC by serial dilution on Iso-Sensitest agar, Staph. 133. As to conditions: 37° C., about 20 hours, about 10^4 colony-forming particles. As to the method: (§1) The minimum inhibitory concentrations (MIC) there determined by the serial dilution method on Iso-Sensitest agar (Oxoid). For each test substance, a number of agar plates were prepared which, at twice the dilution in each case, contained falling concentrations of the active compound. The agar plates were inoculated using a multipoint inoculator (Denley). For inoculation, overnight cultures of the pathogenic organisms were used which had previously been diluted such that each inoculation point contained about 10^4 colony-forming particles. The inoculated agar plates were incubated at 37° C., and the microbial growth was read off after about 20 hours. The MIC (μg/ml) indicates the lowest active compound concentration at which it was not possible to detect growth using the naked eye.

Another assay concerns Staph. 48N. Nature of the assay: MIC by serial dilution on Iso-Sensitest agar, Staph. 48N. As to conditions: 37° C., about 20 hours, about 10^4 colony-forming particles. On the procedure:
as §1

Another assay deals with Staph 25701. Nature of the assay: MIC by serial dilution on Iso-Sensitest agar, Staph 25701. As to conditions: 37° C., about 20 hours, about 10^4 colony-forming particles. On the procedure: as §1
For a further assay, the system named is Staph. 9TV. Nature of the assay: MIC by serial dilution on Iso-Sensitest agar, Staph. 9TV. As to conditions: 37° C., about 20 hours, about 10^4 colony-forming particles. On the procedure: as §1
A further assay deals with E. coli Neumann. Nature of the assay: MIC by serial dilution on Iso-Sensitest agar, E. coli Neumann. As to conditions: Escherichia coli, 37° C., about 20 hours, about 10^4 colony-forming particles. As to the method:
as §1

The test system of another assay is Klebs. 57 USA. Nature of the assay: MIC by serial dilution on Iso-Sensitest agar, Klebs. 57 USA. As to conditions: 37° C., about 20 hours, about 10^4 colony-forming particles. As to the method:
as §1

A further assay relates to Psdm. Bonn. Nature of the assay: MIC by serial dilution on Iso-Sensitest agar, Psdm. Bonn. As to conditions: 37° C., about 20 hours, about 10^4 colony-forming particles. On the procedure:
as §1

Assay [1] relates to Mycobacterium smegmatis DSM 43061. Nature of the assay: MIC by broth microdilution, Mycobacterium smegmatis DSM 43061. As to conditions: Mycolicibacterium smegmatis, DSM43061. As to the method: (§2) For rapidly growing mycobacteria, the MIC determination was carried out following the method of broth microdilution described by Swenson [cf. J. M. Swenson, C. Thornberry, U. A. Silcox, Rapidly growing mycobacteria. Testing of susceptibility to 34 antimicrobial agents by broth microdilution. Antimicrobial Agents and Chemotherapy Vol. 22, 186-192 (1982)]. A deviation from this was the brain-heart extract medium treated with 0.1% by volume of Tween 80.
(§3) The mycobacterial strains used wvere ordered from DSM (German Collection of Microorganisms, Brunswick). They were incubated at 37° C. in a humid chamber.
(§4) The MICs were read off after 2-4 days when the preparation-free controls were cloudy as a result of growth.
(In general: In broth dilution the organism is exposed to a series of concentrations in liquid medium.)

Assay [2] deals with Mycobacterium smegmatis DSM 43465. Nature of the assay: MIC by broth microdilution, Mycobacterium smegmatis DSM 43465. As to conditions: Mycolicibacterium smegmatis, DSM43465. On the procedure:
as §2, §3, §4

Setting [3] is: DSM 43061, inoculum 2.20U+04 /ml, brain-heart extract medium with 0.1% Tween 80, 37° C., 2-4 days, read-out: MIC.
[4] abbreviates: DSM 43465, inoculum 3.10U+04 /ml, brain-heart extract medium with 0.1% Tween 80, 37° C., 2-4 days, read-out: MIC.

Usually MIC stands for the least concentration at which growth counts as inhibited. With `CC(=O)NC[C@H]1CN(c2ccc3c(ccc(=O)n3C)c2)C(=O)O1` [Example 3], the MIC against Staph. 133 was 2 µg/mL (≈ 6.34 µM); with Staph. 48N it was 2 µg/mL (≈ 6.34 µM); with Staph 25701, 2 µg/mL (≈ 6.34 µM); with Staph. 9TV, 1 µg/mL (≈ 3.17 µM); against E. coli Neumann, over 64 µg/mL; against Klebs. 57 USA it was over 64 µg/mL. Further, the MIC with Psdm. Bonn was over 64 µg/mL; in assay [1] (setting [3]), 2 µg/mL (≈ 6.34 µM); in [2] (setting [4]) it was 8 µg/mL (≈ 25.4 µM).
As for `CCn1c(=O)ccc2cc(N3C[C@H](CNC(C)=O)OC3=O)ccc21` [Example 4], the MIC is 4 µg/mL (≈ 12.1 µM) against Staph. 133; 8 µg/mL (≈ 24.3 µM) in the assay on Staph. 48N; 4 µg/mL (≈ 12.1 µM) against Staph 25701; 2 µg/mL (≈ 6.07 µM) with Staph. 9TV; over 64 µg/mL in the assay with E. coli Neumann; over 64 µg/mL in the assay on Klebs. 57 USA. Besides, the MIC was determined as 4 µg/mL (≈ 12.1 µM) in assay [1] (setting [3]) and 8 µg/mL (≈ 24.3 µM) in assay [2] (setting [4]).
Regarding `CC(=O)NC[C@H]1CN(c2ccc3c(ccc(=O)n3C(C)C)c2)C(=O)O1` [Example 5], the MIC is 16 µg/mL (≈ 46.6 µM) in the assay with Staph. 133; 16 µg/mL (≈ 46.6 µM) in the assay on Staph. 48N; 16 µg/mL (≈ 46.6 µM) with Staph 25701; 8 µg/mL (≈ 23.3 µM) against Staph. 9TV; over 64 µg/mL with E. coli Neumann; over 64 µg/mL in the assay with Klebs. 57 USA. Also, the MIC with Psdm. Bonn is over 64 µg/mL.
For the compound `CC(=O)NC[C@H]1CN(c2ccc3c(ccc(=O)n3CC#N)c2)C(=O)O1` [Example 6], the MIC in [1] (setting [3]) was determined as 8 µg/mL (≈ 23.5 µM); in assay [2] (setting [4]) it was 4 µg/mL (≈ 11.8 µM).
Take `CC(=O)NC[C@H]1CN(c2ccc3c(ccc(=O)n3CCO)c2)C(=O)O1` [Example 7]: the MIC in the assay on Staph. 133 is 8 µg/mL (≈ 23.2 µM); with Staph. 48N, 8 µg/mL (≈ 23.2 µM); in the assay with Staph 25701 it was 8 µg/mL (≈ 23.2 µM); against Staph. 9TV, 2 µg/mL (≈ 5.79 µM); in the assay with E. coli Neumann, over 32 µg/mL; with Klebs. 57 USA, over 32 µg/mL. Moreover, the minimum inhibitory concentration (MIC) against Psdm. Bonn is over 32 µg/mL.
In the case of `CC(=O)NC[C@H]1CN(c2ccc3c(ccc(=O)n3S(C)(=O)=O)c2)C(=O)O1` [Example 12], the MIC was 8 µg/mL (≈ 21.1 µM) in the assay with Staph. 133; 8 µg/mL (≈ 21.1 µM) in the assay with Staph. 48N; 8 µg/mL (≈ 21.1 µM) in the assay on Staph 25701; 4 µg/mL (≈ 10.5 µM) with Staph. 9TV; over 64 µg/mL in the assay on E. coli Neumann; over 64 µg/mL in the assay on Klebs. 57 USA. The compound further gave an MIC against Psdm. Bonn of over 64 µg/mL.
In the case of `NNC(=O)c1ccncc1` [Isoniazide, reference compound], the values for the MIC in assay [1] (setting [3]) and in assay [2] (setting [4]) were 4 µg/mL (≈ 29.2 µM) and 1 µg/mL (≈ 7.29 µM), respectively.
Regarding `[H]/N=C(/N)N[C@H]1[C@H](O)[C@@H](O)[C@H](O[C@@H]2O[C@@H](C)[C@](O)(C=O)[C@H]2O[C@@H]2O[C@@H](CO)[C@H](O)[C@@H](O)[C@@H]2NC)[C@@H](N/C(N)=N\[H])[C@@H]1O` [Streptomycin, reference compound], the MIC in [1] and in assay [2] was 4 µg/mL (≈ 6.88 µM) throughout.
